{
  "source": "patent US11396493B2",
  "about": "“Amorphous pyrrolidine derivative as PPAR agonist and preparation method thereof” (GUANGDONG RAYNOVENT BIOTECH CO., LTD., priority 2017, dated 2022)",
  "key": {"[1]": {"tested_on": "cytokines of PPAR-associated pathways", "test": "Effect on cytokines of PPAR-associated pathways", "conditions": "no data shown"}, "[2]": {"test": "Stability tests of the amorphous form in various solvents, XRPD", "type": "physicochemical", "conditions": "for Appearance: 40° C. 2 days", "description": "A plurality of samples of the amorphous form of the compound of formula (I) (each about 20 mg) were respectively added to 0.3-0.4 mL of a single or mixed solvent as listed in the table below, and stirred at 40° C. After being stirred for 2 days, if the sample was still in a state of a solution or close to a solution, it was filtered, followed by natural evaporation of solvent; and if the sample was still a suspension, the sample was centrifuged for collecting the precipitates, and the supernate was placed in a fuming cupboard until the solvent was dried off. Then, the precipitates and the solids obtained after solvent evaporation were placed in a vacuum drying oven at 40° C. overnight. The solids in all the samples were collected and detected by XRPD for their states."}, "[3]": {"test": "Solid physical stability test at high humidity (25° C./92.5% RH), appearance and XRPD", "type": "physicochemical", "description": "Samples (each about 100 mg) of the amorphous form of the compound of formula (I) were weighed in duplicates, and placed on the bottom of a glass sample bottle to spread out into a thin layer. The mouth of the glass sample bottle was sealed with aluminum foil which was pierced to form some holes thereon to ensure that the samples could sufficiently contact with the ambient air. The prepared samples were placed under the relative conditions of 25° C./92.5%, and detected for their physical stability on Day 10. Meanwhile, a sample (about 100 mg) of the amorphous form of the compound of formula (I) was separately weighed, placed on the bottom of the glass sample bottle which was sealed with a screw cap, and stored at −20° C. as control. On Day 10, all the samples were taken out and returned to room temperature. The samples were visually observed for their appearance changes, and detected by XRPD for their forms. By comparing the accelerated sample with the control sample, the solid physical stability of the compound of formula (I) was determined."}, "[4]": {"test": "Solid stability test under high temperature and high humidity (40° C./75% humidity), HPLC", "type": "physicochemical", "description": "Samples (each about 100 mg) of the amorphous form of the compound of formula (I) were weighed in duplicates, and placed on the bottom of a glass sample bottle to spread out into a thin layer. The mouth of the glass sample bottle was sealed with aluminum foil which was pierced to form some holes thereon to ensure that the samples could sufficiently contact with the ambient air. The samples were placed in a constant temperature and humidity chamber at 40° C./75% humidity. The samples stored under the above conditions were sampled and tested on Days 10, 30, 60, and 90. The test results were compared with the initial test results of Day 0."}, "[5]": {"conditions": "40° C./75% humidity, open, Day 10, HPLC"}, "[6]": {"conditions": "40° C./75% humidity, open, Day 30, HPLC"}, "[7]": {"conditions": "40° C./75% humidity, open, Day 60, HPLC"}, "[8]": {"conditions": "40° C./75% humidity, open, Day 90, HPLC"}},
  "data": [
    {"compound": "CSc1ccc(C(=O)[C@@H]2CN(C(=O)Oc3ccccc3)C[C@H]2Cc2cc(C)c(OC(C)(C)C(=O)O)c(C)c2)cc1", "values": [
      {"measurement": "effect on cytokines of PPAR-associated pathways", "setting": "[1]", "value": "obvious inhibitory effect"},
      {"measurement": "Appearance", "setting": "[2]; 1,4-dioxane, about 20 mg in 0.3-0.4 mL, cell wraps: ...Solid precipitated after evaporation of solvent", "value": "Suspension (2 days)/Solid"},
      {"measurement": "Appearance", "setting": "[2]; Acetone, about 20 mg in 0.3-0.4 mL, cell wraps: ...Solid precipitated after evaporation of solvent", "value": "Suspension (2 days)/Solid"},
      {"measurement": "Appearance", "setting": "[2]; Acetone:water = 3:1, about 20 mg in 0.3-0.4 mL, cell wraps: ...Solid precipitated after evaporation of solvent", "value": "Suspension (2 days)/Solid"},
      {"measurement": "Appearance", "setting": "[2]; Acetonitrile, about 20 mg in 0.3-0.4 mL, cell wraps: ...Solid precipitated after evaporation of solvent", "value": "Suspension (2 days)/Solid"},
      {"measurement": "Appearance", "setting": "[2]; Acetonitrile:water = 3:1, about 20 mg in 0.3-0.4 mL, cell wraps: ...Solid precipitated after evaporation of solvent", "value": "Suspension (2 days)/Solid"},
      {"measurement": "Appearance", "setting": "[2]; Ethanol, about 20 mg in 0.3-0.4 mL, cell wraps: ...Solid precipitated after evaporation of solvent", "value": "Suspension (2 days)/Solid"},
      {"measurement": "Appearance", "setting": "[2]; Ethanol:water = 3:1, about 20 mg in 0.3-0.4 mL, cell wraps: ...Solid precipitated after evaporation of solvent", "value": "Suspension (2 days)/Solid"},
      {"measurement": "Appearance", "setting": "[2]; Ethyl acetate, about 20 mg in 0.3-0.4 mL, cell wraps: ...Solid precipitated after evaporation of solvent", "value": "Suspension (2 days)/Solid"},
      {"measurement": "Appearance", "setting": "[2]; Methanol, about 20 mg in 0.3-0.4 mL, cell wraps: ...after evaporation of solvent", "value": "Solid precipitated after"},
      {"measurement": "Results (form by XRPD)", "setting": "[2]; Methanol, stirred at 40° C. 2 days", "value": "Amorphous"},
      {"measurement": "Appearance", "setting": "[2]; Methanol:water = 3:1, about 20 mg in 0.3-0.4 mL, cell wraps: ...after evaporation of solvent", "value": "Solid precipitated after"},
      {"measurement": "Results (form by XRPD)", "setting": "[2]; Methanol:water = 3:1, stirred at 40° C. 2 days", "value": "Amorphous"},
      {"measurement": "Appearance", "setting": "[2]; Tetrafuran, about 20 mg in 0.3-0.4 mL, cell wraps: ...Solid precipitated after evaporation of solvent", "value": "Suspension (2 days)/Solid"},
      {"measurement": "stability of form in various solvents", "setting": "[2]; summary of Table 4", "value": "does not exhibit any change of form"},
      {"measurement": "stability at high humidity", "setting": "[3]; 25° C./92.5% RH, Day 10", "value": "does not exhibit form and appearance changes"},
      {"measurement": "Appearance", "setting": "[3]; 25° C./92.5% Relative Humidity (Open), Day 10", "value": "Off-white powder"},
      {"measurement": "Form", "setting": "[3]; 25° C./92.5% Relative Humidity (Open), Day 10, XRPD", "value": "Amorphous"},
      {"measurement": "Appearance", "setting": "[4]; 40° C./75% humidity, open, Day 10", "value": "Off-white powder"},
      {"measurement": "Purity (%)", "setting": "[4]; [5]", "value": 97.49, "unit": "%"},
      {"measurement": "Total Impurity (%)", "setting": "[4]; [5]", "value": 2.51, "unit": "%"},
      {"measurement": "Appearance", "setting": "[4]; 40° C./75% humidity, open, Day 30", "value": "Off-white powder"},
      {"measurement": "Purity (%)", "setting": "[4]; [6]", "value": 97.31, "unit": "%"},
      {"measurement": "Total Impurity (%)", "setting": "[4]; [6]", "value": 2.69, "unit": "%"},
      {"measurement": "Appearance", "setting": "[4]; 40° C./75% humidity, open, Day 60", "value": "Off-white powder"},
      {"measurement": "Purity (%)", "setting": "[4]; [7]", "value": 97.59, "unit": "%"},
      {"measurement": "Total Impurity (%)", "setting": "[4]; [7]", "value": 2.41, "unit": "%"},
      {"measurement": "Appearance", "setting": "[4]; 40° C./75% humidity, open, Day 90", "value": "Off-white powder"},
      {"measurement": "Purity (%)", "setting": "[4]; [8]", "value": 97.28, "unit": "%"},
      {"measurement": "Total Impurity (%)", "setting": "[4]; [8]", "value": 2.72, "unit": "%"},
      {"measurement": "stability at high temperature and humidity", "setting": "[4]; 40° C./75% humidity, up to Day 90", "value": "does not exhibit a significant change in content and impurities"},
      {"measurement": "Appearance", "setting": "[4]; Day 0 (initial)", "value": "Off-white powder"},
      {"measurement": "Purity (%)", "setting": "[4]; Day 0 (initial), HPLC", "value": 97.37, "unit": "%"},
      {"measurement": "Total Impurity (%)", "setting": "[4]; Day 0 (initial), HPLC", "value": 2.63, "unit": "%"}
    ]}
  ]
}
